This note sets out measurements from ChEMBL document CHEMBL1201862, “PubChem BioAssay data set” (2004).

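Where inhibition never reached the appropriate level, the endpoint shown equals the highest concentration tested. Otherwise, values were interpolated linearly from a five-concentration, 48-hour dose response in 96-well plates. GI50 = concentration required for 50% inhibition of growth.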 Activity calls are given as the source filed them. Cut-off read from the data, not from the text of the source: active = GI50 up to about 1.1 µM and inactive = higher.

Common to all, as to assay: NCI anticancer screen, dose series, 48 h
Assay [1] concerns SF-539.
Assay [2] deals with CAKI-1.
Assay [3] deals with MDA-N.
The subject of assay [4] is NCI-H23.
Assay [5] has as its system PC-3.
The subject of assay [6] is Malme-3M.
In assay [7] the test system is EKVX.
In assay [8] the test system is U-251.
Assay [9] deals with SK-MEL-2.
Assay [10] has as its system SK-MEL-28.
In assay [11] the test system is SN12C.
The test system of assay [12] is 786-0.
Assay [13] has as its system OVCAR-8.
Assay [14] has as its system BT-549.
In assay [15] the test system is SF-268.
Assay [16] relates to MDA-MB-435.
The subject of assay [17] is HCC 2998.
In assay [18] the test system is NCI-H460.
The subject of assay [19] is LOX IMVI.

With `COc1ccc(-n2cnc3c(N)nc(N)nc32)cc1`, the GI50 in assay [1] was 49.5 µM (inactive); in [2], 76.7 µM (inactive); in assay [3], > 100 µM (inactive); in assay [4], > 100 µM (inactive); in [5], > 100 µM (inactive); in assay [6] it was > 100 µM (inactive). Further, the GI50 is 24.8 µM (inactive) in assay [7]; > 100 µM (inactive) in assay [8]; 54.2 µM (inactive) in assay [9]; > 100 µM (inactive) in assay [10]; 53.6 µM (inactive) in [11]; > 100 µM (inactive) in assay [12]. Also, the GI50 in assay [13] was > 100 µM (inactive); in assay [14], > 100 µM (inactive); in assay [15], > 100 µM (inactive); in assay [16] it was > 100 µM (inactive); in [17], 64.4 µM (inactive).

Turning to `NS(=O)(=O)c1ccc(NCc2cnc3ccccc3n2)cc1`, the GI50 in [1], in assay [2], in assay [18], in [3], in assay [4] and in assay [5] was > 100 µM (inactive) in each case. In addition, the GI50 in [6], in [7], in assay [8], in assay [9], in [10] and in assay [11] was > 100 µM (inactive) in each case. For the same molecule, the GI50 in assay [12], in assay [13], in [14], in assay [15], in assay [16] and in assay [17] was > 100 µM (inactive) in each case.

Consider `Cc1cnc2sn(-c3ccc(Br)cc3)c(=O)c2c1`, for which the GI50 in assay [1] is 31.3 µM (inactive); in [2], 16.7 µM (inactive); in assay [18], 32.5 µM (inactive); in assay [3], > 100 µM (inactive); in assay [4], 33 µM (inactive); in assay [5] it was 36.6 µM (inactive). The GI50 in assay [6] is 15.1 µM (inactive); in [7], 41.2 µM (inactive); in assay [8] it was 27.1 µM (inactive); in assay [9] it was > 100 µM (inactive); in [10] it was 27.7 µM (inactive); in assay [11], 59.6 µM (inactive). The GI50 in assay [19] was 23.3 µM (inactive); in [12], 37.5 µM (inactive); in assay [13], 62.5 µM (inactive); in assay [14], 35 µM (inactive); in assay [15] it was 38.7 µM (inactive); in assay [16], 40 µM (inactive). Moreover, the GI50 in assay [17] was 22.7 µM (inactive).

For `O=C(CCc1cc(O)cc(O)c1)NCCCNC(=O)CCc1cc(O)cc(O)c1`, the GI50 in assay [1], in assay [2], in [3], in assay [4], in assay [5] and in [6] was > 100 µM (inactive) in each case. Also, the GI50 in [7], in assay [8], in assay [9], in assay [10], in assay [11] and in [19] was > 100 µM (inactive) each time. Further, the GI50 in [12], in assay [13], in assay [14], in [15], in [16] and in [17] was > 100 µM (inactive) in each case.

Turning to `O=C(c1ccc(Cl)c(Cl)c1)N(C(=O)N1CCN(c2ccccc2)CC1)S(=O)(=O)c1ccccc1`, the GI50 is 41.2 µM (inactive) in assay [1]; 55.6 µM (inactive) in assay [2]; 68.7 µM (inactive) in assay [18]; 26.2 µM (inactive) in [3]; 37.5 µM (inactive) in assay [4]; 32 µM (inactive) in assay [5]. The GI50 in assay [6] is 60 µM (inactive); in assay [7], > 100 µM (inactive); in [8] it was 25.5 µM (inactive); in assay [9], 23.2 µM (inactive); in [10], > 100 µM (inactive); in [11], 36.1 µM (inactive). The GI50 in assay [19] was 19.9 µM (inactive); in assay [12] it was 35.6 µM (inactive); in [13] it was 26.9 µM (inactive); in assay [14], 40.6 µM (inactive); in [15], 38.2 µM (inactive); in [16], 46.7 µM (inactive). Also, the GI50 in assay [17] is > 100 µM (inactive).

On to `O=[N+]([O-])c1ccc2c(c1)Sc1ccccc1N2`, for which the GI50 in [1] was > 100 µM (inactive); in assay [2], > 100 µM (inactive); in assay [18], 22.8 µM (inactive); in assay [3], 6.12 µM (inactive); in [4], 7.35 µM (inactive); in assay [5] it was 31.9 µM (inactive). The GI50 in assay [6] was > 100 µM (inactive); in assay [7] it was 11.4 µM (inactive); in assay [8], 67.3 µM (inactive); in assay [10], > 100 µM (inactive); in assay [11], > 100 µM (inactive); in [19], 41.3 µM (inactive). The GI50 is 64.3 µM (inactive) in assay [12]; > 100 µM (inactive) in assay [13]; > 100 µM (inactive) in [14]; > 100 µM (inactive) in [15]; 3.72 µM (inactive) in assay [16]; > 100 µM (inactive) in assay [17].

Regarding `COC(=O)c1ccc(CCC2=CC(=O)C(Br)=CC2=O)cc1`, the GI50 in [1] was 17.8 µM (inactive); in assay [2] it was 13.6 µM (inactive); in [18] it was 18.2 µM (inactive); in assay [3], 16 µM (inactive); in assay [4] it was 15.1 µM (inactive); in assay [5] it was 16.9 µM (inactive). In addition, the GI50 in [6] was 16.9 µM (inactive); in assay [7] it was 19 µM (inactive); in assay [8], 16.7 µM (inactive); in [9], 17.1 µM (inactive); in assay [10], 16.7 µM (inactive); in [11] it was 17.5 µM (inactive). In addition, the GI50 in assay [19] is 17.5 µM (inactive); in assay [12], 19.8 µM (inactive); in assay [13], 16.3 µM (inactive); in [14] it was 11.6 µM (inactive); in assay [15], 19.8 µM (inactive); in assay [16] it was 16.1 µM (inactive). In addition, the GI50 in assay [17] was 15.7 µM (inactive).

Turning to `C=C[C@]1(C)CC(=O)C(C(C)C=O)[C@]12C(=O)Oc1cccc(C)c1C2=O` (some centres not stated), the GI50 in [1] was 16.2 µM (inactive); in [2], 14.4 µM (inactive); in assay [18], 16.6 µM (inactive); in assay [3] it was 14.5 µM (inactive); in [4], 17.1 µM (inactive); in [5], 13.3 µM (inactive). Moreover, the GI50 in assay [6] was 18 µM (inactive); in assay [7], 19.4 µM (inactive); in assay [8], 14.6 µM (inactive); in [9], 17.1 µM (inactive); in assay [10] it was 15.2 µM (inactive); in [11], 16.3 µM (inactive). Also, the GI50 was 14 µM (inactive) in assay [19]; 16.4 µM (inactive) in [12]; 16.1 µM (inactive) in [13]; 14.3 µM (inactive) in assay [14]; 24.1 µM (inactive) in assay [15]; 15.2 µM (inactive) in assay [16]. Moreover, the GI50 in assay [17] was 17.7 µM (inactive).

On to `CC(=O)NC1CCC(NC(=O)OC(C)(C)C)C(NC(=O)OC(C)(C)C)C1` (configuration not stated), for which the GI50 in assay [1], in assay [2], in assay [18], in assay [3], in assay [4] and in [5] was > 100 µM (inactive) each time. Further, the GI50 in assay [6], in assay [8], in assay [9], in assay [10], in assay [11] and in assay [19] was > 100 µM (inactive) in each case. Also, the GI50 in [12], in [13], in assay [14], in assay [15], in [16] and in assay [17] was > 100 µM (inactive) each time.

For `COc1ccc(S(=O)(=O)NC(CCC(=O)NC(N)=O)C(=O)NC(N)=O)cc1` (configuration not stated), the GI50 in [1], in assay [2], in assay [18], in [3], in assay [4] and in assay [5] was > 100 µM (inactive) each time. Moreover, the GI50 in [6], in assay [7], in [8], in assay [9], in assay [10] and in assay [11] was > 100 µM (inactive) in each case. The GI50 in assay [19], in [12], in [13], in assay [14], in assay [16] and in assay [17] was > 100 µM (inactive) throughout.

As for `COc1ccc2nc3cc(Cl)ccc3c(NCCCNCCCNc3c4ccc(Cl)cc4nc4ccc(OC)cc34)c2c1`, the GI50 was 0.0157 µM (active) in assay [1]; 0.0156 µM (active) in [2]; 0.0102 µM (active) in assay [18]; < 0.01 µM (active) in assay [3]; 0.0181 µM (active) in assay [4]; 0.0241 µM (active) in [5]. Besides, the GI50 was 0.0604 µM (active) in [6]; 0.137 µM (active) in assay [7]; 0.0137 µM (active) in assay [8]; 0.0404 µM (active) in assay [9]; 0.133 µM (active) in assay [10]; < 0.01 µM (active) in [11]. The GI50 is < 0.01 µM (active) in assay [19]; < 0.01 µM (active) in assay [12]; < 0.01 µM (active) in assay [13]; 0.21 µM (active) in [14]; 0.0111 µM (active) in assay [15]; 0.0374 µM (active) in assay [16]. Further, the GI50 in [17] is 0.0178 µM (active).
